Measured values from article PMC4051630, “A Comparison of Protein Kinases Inhibitor Screening Methods Using Both Enzymatic Activity and Binding Affinity Determination” (PLoS ONE, 2014).

Experiments:
Experiment in all cases: Differential Scanning Fluorimetry (DSF) Tm shift
Format in all cases: binding
[1] = target: T1, PAK4 Catalytic Domain+PBD (Homo sapiens, UniProt O96013); settings: 2 µM protein, 10 µM inhibitor, average of 3 experiments, each in duplicate
T1 construct: for 8, we also made a longer version containing one or more additional domains; His-tag; made in house; host or cells: Escherichia coli
T1 sequence (O96013 whole entry, the tested form may be a part): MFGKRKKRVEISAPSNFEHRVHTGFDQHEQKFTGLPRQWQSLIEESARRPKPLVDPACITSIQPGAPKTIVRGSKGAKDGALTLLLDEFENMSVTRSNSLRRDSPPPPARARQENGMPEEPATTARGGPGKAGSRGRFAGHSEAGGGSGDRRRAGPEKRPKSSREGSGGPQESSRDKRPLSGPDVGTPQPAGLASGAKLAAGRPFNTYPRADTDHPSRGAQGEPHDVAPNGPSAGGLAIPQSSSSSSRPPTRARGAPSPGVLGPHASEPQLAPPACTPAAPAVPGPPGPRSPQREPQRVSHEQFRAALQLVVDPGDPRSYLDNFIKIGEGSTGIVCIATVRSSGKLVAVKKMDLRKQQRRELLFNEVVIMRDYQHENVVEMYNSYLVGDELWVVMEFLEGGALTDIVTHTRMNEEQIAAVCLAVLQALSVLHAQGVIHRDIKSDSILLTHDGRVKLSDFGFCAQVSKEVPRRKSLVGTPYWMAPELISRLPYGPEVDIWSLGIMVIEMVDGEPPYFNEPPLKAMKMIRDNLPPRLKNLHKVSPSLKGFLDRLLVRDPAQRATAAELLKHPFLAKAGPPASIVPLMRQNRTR

[2] = target: T2, FES Catalytic Domain (Homo sapiens, UniProt P07332); settings: 2 µM protein, 10 µM inhibitor, average of 3 experiments, each in duplicate
T2 construct: For all of them, we expressed and purified the catalytic domain separately; His-tag; made in house; host or cells: Escherichia coli
T2 sequence (P07332 561-822 limits assumed): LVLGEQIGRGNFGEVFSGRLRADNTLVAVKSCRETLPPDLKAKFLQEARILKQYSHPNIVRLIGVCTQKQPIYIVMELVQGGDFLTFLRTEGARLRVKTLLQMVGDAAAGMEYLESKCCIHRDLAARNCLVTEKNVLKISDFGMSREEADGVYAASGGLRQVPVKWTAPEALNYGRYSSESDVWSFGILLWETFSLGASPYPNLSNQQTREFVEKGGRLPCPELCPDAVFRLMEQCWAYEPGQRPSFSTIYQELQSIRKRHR

[3] = target: T3, AKT3 Catalytic Domain (Homo sapiens, UniProt Q9Y243); settings: 2 µM protein, 10 µM inhibitor, average of 3 experiments, each in duplicate
T3 construct: AKT3 (Q9Y243); CD; His-tag; made in house; host or cells: Escherichia coli
T3 sequence (Q9Y243 122-479): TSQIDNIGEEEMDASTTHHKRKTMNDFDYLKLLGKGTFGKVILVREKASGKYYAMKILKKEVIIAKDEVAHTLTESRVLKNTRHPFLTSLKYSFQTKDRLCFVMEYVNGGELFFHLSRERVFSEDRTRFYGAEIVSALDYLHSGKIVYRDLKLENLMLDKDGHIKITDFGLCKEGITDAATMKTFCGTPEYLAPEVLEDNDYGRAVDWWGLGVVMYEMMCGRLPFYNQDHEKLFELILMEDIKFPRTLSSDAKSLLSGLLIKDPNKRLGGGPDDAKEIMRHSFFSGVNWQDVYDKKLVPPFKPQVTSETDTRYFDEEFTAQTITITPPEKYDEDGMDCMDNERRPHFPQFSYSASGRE

[4] = target: T4, PAK4 Catalytic Domain (Homo sapiens, UniProt O96013); settings: 2 µM protein, 10 µM inhibitor, average of 3 experiments, each in duplicate
T4 construct: For all of them, we expressed and purified the catalytic domain separately; His-tag; made in house; host or cells: Escherichia coli
T4 sequence (O96013 321-572 limits assumed): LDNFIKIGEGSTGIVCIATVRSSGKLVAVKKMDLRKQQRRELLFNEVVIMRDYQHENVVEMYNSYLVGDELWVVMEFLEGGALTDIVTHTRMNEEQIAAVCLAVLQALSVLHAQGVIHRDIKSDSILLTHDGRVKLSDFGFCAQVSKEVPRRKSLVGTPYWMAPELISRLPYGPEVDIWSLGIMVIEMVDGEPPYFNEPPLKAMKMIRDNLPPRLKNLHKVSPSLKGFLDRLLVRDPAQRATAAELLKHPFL

[5] = target: T5, FES Catalytic Domain+SH2 (Homo sapiens, UniProt P07332); settings: 2 µM protein, 10 µM inhibitor, average of 3 experiments, each in duplicate
T5 construct: for 8, we also made a longer version containing one or more additional domains; His-tag; made in house; host or cells: Escherichia coli
T5 sequence (P07332 448-822 limits assumed): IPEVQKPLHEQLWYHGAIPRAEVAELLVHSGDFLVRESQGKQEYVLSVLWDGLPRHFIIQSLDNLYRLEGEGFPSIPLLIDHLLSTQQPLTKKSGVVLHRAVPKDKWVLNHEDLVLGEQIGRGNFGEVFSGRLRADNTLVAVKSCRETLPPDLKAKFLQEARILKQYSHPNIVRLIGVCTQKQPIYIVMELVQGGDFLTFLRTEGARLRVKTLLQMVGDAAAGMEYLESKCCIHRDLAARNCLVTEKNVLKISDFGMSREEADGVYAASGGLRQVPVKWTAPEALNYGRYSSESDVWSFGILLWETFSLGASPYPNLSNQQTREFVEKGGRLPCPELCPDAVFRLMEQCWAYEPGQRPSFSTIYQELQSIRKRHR

[6] = target: T6, CHK2 Catalytic Domain (Homo sapiens, UniProt O96017); settings: 2 µM protein, 10 µM inhibitor, average of 3 experiments, each in duplicate
T6 construct: For all of them, we expressed and purified the catalytic domain separately; His-tag; made in house; host or cells: Escherichia coli
T6 sequence (O96017 220-486 limits assumed): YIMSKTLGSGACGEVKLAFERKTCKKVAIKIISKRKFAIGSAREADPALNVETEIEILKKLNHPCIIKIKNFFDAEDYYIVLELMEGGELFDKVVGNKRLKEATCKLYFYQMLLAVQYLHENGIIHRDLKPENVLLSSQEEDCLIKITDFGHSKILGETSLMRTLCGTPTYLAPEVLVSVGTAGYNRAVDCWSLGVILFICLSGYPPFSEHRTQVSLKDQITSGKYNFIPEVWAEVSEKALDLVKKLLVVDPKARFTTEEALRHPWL

[7] = target: SRC Catalytic Domain+SH2+SH3 (Homo sapiens, UniProt P12931); settings: 2 µM protein, 10 µM inhibitor, average of 3 experiments, each in duplicate
Sequence of SRC Catalytic Domain+SH2+SH3 (P12931 84-523 limits assumed): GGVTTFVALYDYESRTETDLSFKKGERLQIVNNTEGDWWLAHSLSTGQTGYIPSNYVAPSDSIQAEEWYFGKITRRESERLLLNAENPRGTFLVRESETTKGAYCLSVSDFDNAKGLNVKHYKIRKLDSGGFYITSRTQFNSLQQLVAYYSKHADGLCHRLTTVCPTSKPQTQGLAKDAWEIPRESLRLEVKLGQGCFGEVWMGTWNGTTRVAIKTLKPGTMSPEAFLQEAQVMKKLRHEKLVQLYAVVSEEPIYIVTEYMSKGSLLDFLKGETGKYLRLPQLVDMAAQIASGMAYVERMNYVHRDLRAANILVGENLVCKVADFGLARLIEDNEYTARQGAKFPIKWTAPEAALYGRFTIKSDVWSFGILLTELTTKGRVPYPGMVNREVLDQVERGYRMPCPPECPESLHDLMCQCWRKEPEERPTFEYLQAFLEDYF

[8] = target: T7, DMPK Catalytic Domain (Homo sapiens, UniProt Q09013); settings: 2 µM protein, 10 µM inhibitor, average of 3 experiments, each in duplicate
T7 construct: For all of them, we expressed and purified the catalytic domain separately; His-tag; made in house; host or cells: Escherichia coli
T7 sequence (Q09013 71-339 limits assumed): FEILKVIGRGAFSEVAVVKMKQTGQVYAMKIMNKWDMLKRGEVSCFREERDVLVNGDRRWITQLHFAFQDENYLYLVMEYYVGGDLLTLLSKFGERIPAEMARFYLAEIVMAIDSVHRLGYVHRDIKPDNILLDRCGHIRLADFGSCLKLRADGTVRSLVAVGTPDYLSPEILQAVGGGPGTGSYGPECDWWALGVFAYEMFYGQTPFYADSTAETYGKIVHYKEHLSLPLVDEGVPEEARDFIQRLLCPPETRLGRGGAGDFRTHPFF

[9] = target: T8, STK3 Catalytic Domain (Homo sapiens, UniProt Q13188); settings: 2 µM protein, 10 µM inhibitor, average of 3 experiments, each in duplicate
T8 construct: For all of them, we expressed and purified the catalytic domain separately; His-tag; made in house; host or cells: Escherichia coli
T8 sequence (Q13188 27-278 limits assumed): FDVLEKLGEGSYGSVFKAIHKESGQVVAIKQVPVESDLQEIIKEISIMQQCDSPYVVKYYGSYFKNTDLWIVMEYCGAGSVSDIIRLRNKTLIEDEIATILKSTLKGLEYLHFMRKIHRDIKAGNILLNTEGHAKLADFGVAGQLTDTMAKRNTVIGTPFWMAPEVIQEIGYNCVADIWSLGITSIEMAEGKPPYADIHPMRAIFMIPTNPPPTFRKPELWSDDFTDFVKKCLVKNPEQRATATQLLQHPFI

[10] = target: T9, FAK2 Catalytic Domain (Homo sapiens, UniProt Q14289); settings: 2 µM protein, 10 µM inhibitor, average of 3 experiments, each in duplicate
T9 construct: For all of them, we expressed and purified the catalytic domain separately; His-tag; made in house; host or cells: Escherichia coli
T9 sequence (Q14289 425-683 limits assumed): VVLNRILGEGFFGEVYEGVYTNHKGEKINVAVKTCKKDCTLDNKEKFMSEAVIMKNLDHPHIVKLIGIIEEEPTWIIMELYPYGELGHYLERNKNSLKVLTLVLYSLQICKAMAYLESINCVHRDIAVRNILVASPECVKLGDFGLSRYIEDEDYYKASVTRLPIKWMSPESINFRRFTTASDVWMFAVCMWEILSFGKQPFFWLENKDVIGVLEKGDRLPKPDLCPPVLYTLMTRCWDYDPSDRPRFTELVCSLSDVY

[11] = target: T10, STK3 Catalytic domain+SARAH (Homo sapiens, UniProt Q13188); settings: 2 µM protein, 10 µM inhibitor, average of 3 experiments, each in duplicate
T10 construct: for 8, we also made a longer version containing one or more additional domains; His-tag; made in house; host or cells: Escherichia coli
T10 sequence (Q13188 1-491): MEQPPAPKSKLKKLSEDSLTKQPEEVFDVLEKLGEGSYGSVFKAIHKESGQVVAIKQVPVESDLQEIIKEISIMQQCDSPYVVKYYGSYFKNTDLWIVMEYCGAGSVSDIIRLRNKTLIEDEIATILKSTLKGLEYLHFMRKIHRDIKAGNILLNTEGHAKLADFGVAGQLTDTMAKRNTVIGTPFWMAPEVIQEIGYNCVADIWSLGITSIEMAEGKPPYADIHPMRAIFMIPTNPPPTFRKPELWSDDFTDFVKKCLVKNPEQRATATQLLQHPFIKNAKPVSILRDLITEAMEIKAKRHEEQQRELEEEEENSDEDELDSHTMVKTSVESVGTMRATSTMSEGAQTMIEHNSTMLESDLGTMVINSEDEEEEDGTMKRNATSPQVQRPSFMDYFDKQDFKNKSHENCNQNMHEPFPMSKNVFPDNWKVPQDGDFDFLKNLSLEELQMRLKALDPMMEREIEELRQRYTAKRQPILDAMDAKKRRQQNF

[12] = target: T11, CDK2 + Cyclin A (Homo sapiens, UniProt P24941); settings: CDK2 + Cyclin A; 2 µM protein, 10 µM inhibitor; average of 3 experiments, each in duplicate
T11 construct: CDK2 (P24941); 1–299; His-tag; made in house; host or cells: Escherichia coli

[13] = target: T12, PAK7 Catalytic Domain (Homo sapiens, UniProt Q9P286); settings: 2 µM protein, 10 µM inhibitor, average of 3 experiments, each in duplicate
T12 construct: For all of them, we expressed and purified the catalytic domain separately; His-tag; made in house; host or cells: Escherichia coli
T12 sequence (Q9P286 449-700 limits assumed): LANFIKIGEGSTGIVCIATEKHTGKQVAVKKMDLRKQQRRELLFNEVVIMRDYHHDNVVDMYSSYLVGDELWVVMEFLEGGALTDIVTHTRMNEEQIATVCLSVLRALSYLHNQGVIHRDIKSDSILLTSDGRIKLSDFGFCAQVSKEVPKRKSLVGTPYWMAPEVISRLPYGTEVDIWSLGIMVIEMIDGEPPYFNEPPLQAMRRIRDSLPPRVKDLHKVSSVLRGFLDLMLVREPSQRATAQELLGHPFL

Structure (SMILES) | Melting temperature (Tm) shift [1] | Melting temperature (Tm) shift [2] | Melting temperature (Tm) shift [3] | Melting temperature (Tm) shift [4] | Melting temperature (Tm) shift [5] | Melting temperature (Tm) shift [6] | Melting temperature (Tm) shift [7] | Melting temperature (Tm) shift [8] | Melting temperature (Tm) shift [9] | Melting temperature (Tm) shift [10] | Melting temperature (Tm) shift [11] | Melting temperature (Tm) shift [12] | Melting temperature (Tm) shift [13]
O=c1c2ccccc2[nH]c(=S)n1CCN1CCC(=C(c2ccc(F)cc2)c2ccc(F)cc2)CC1 [Diacylglycerol Kinase Inhibitor II] | 0.2 degrees Celcius | 0.7 degrees Celcius |  |  |  |  |  |  |  |  |  |  | 
O=C1NC(=O)c2c1c1c3ccccc3[nH]c1c1[nH]c3ccccc3c21 [Arcyriaflavin A, Synthetic, Arcyriaflavin A] | 0.5 degrees Celcius |  | 0.0 degrees Celcius | 0.2 degrees Celcius |  |  |  |  |  |  |  |  | 
Brc1c(Br)c(Br)c2n[nH]nc2c1Br [Casein Kinase II Inhibitor I] | 0.9 degrees Celcius | 0.0 degrees Celcius | 0.1 degrees Celcius | 0.2 degrees Celcius | 0.8 degrees Celcius | 2.2 degrees Celcius | 0.2 degrees Celcius | 0.6 degrees Celcius | 1.1 degrees Celcius | 0.1 degrees Celcius | 0.4 degrees Celcius |  | 
O.O=C1NCCc2[nH]c(-c3ccnc(-c4cnc5ccccc5c4)c3)cc21 [MK-2 Inhibitor III] | 0.1 degrees Celcius |  | 0.0 degrees Celcius | 0.0 degrees Celcius |  | 1.2 degrees Celcius | 0.1 degrees Celcius | 0.3 degrees Celcius | 0.0 degrees Celcius | 0.1 degrees Celcius | 0.4 degrees Celcius | 0.1 degrees Celcius | 0.0 degrees Celcius
O=C1NC(=O)/C(=C/c2ccc3nccnc3c2)S1 [PI 3-Kg Inhibitor] |  | 0.1 degrees Celcius | 0.0 degrees Celcius | 0.1 degrees Celcius | 0.1 degrees Celcius | 0.4 degrees Celcius | 0.0 degrees Celcius | 0.8 degrees Celcius | 0.1 degrees Celcius |  | 0.1 degrees Celcius | 0.2 degrees Celcius | 0.0 degrees Celcius
CC[C@@H](CO)Nc1nc(NCc2ccccc2)c2ncn(C(C)C)c2n1 (single isomer, unassigned) [Roscovitine, (S)-Isomer] | 2.6 degrees Celcius | 1.2 degrees Celcius | 0.0 degrees Celcius | 1.4 degrees Celcius | 0.9 degrees Celcius | 0.6 degrees Celcius |  | 0.3 degrees Celcius | 0.0 degrees Celcius | 0.2 degrees Celcius | 0.0 degrees Celcius |  | 0.7 degrees Celcius
CC(=O)O/N=C1/C(=C2/C(=O)Nc3cc(Br)ccc32)Nc2ccccc21 [GSK-3 Inhibitor X] | 1.0 degrees Celcius | 0.4 degrees Celcius | 0.1 degrees Celcius | 0.6 degrees Celcius | 0.0 degrees Celcius |  |  | 0.5 degrees Celcius |  |  | 0.5 degrees Celcius |  | 0.1 degrees Celcius
